Records with an inconclusive call do not appear.
System: SR lymphoma cells viability, CellTiter-Glo ATP, 8-48 h
Assay: SR lymphoma cell viability over time, late-stage follow-up, mechanism study for HRAS target identification, CellTiter-Glo ATP luminescence, 8-48 h, dry powder (AID 720608)

Molecule `C#CCCCC(=O)NCCOCCOCCOc1ccc(N(C(=O)CCl)C(C(=O)NCCc2ccccc2)c2cccs2)cc1Cl` (stereo not given) has an AC50 (measured here: 8 h treatment) of 2430 nM, an AC50 (measured here: 24 h treatment) of 406 nM and an AC50 (measured here: 48 h treatment) of 703 nM.

`COc1ccc(N(C(=O)CCl)C(C(=O)NCCc2ccccc2)c2cccs2)cc1Cl` (stereo not given) was tested, and the AC50 (measured here: 8 h treatment) was 119 nM, the AC50 (measured here: 24 h treatment) was 46.8 nM and the AC50 (measured here: 48 h treatment) was 42.3 nM.

In the case of `COC(=O)c1ccc([C@@H]2c3[nH]c4ccccc4c3C[C@@H](C(=O)OC)N2C(=O)CCl)cc1`, the AC50 (measured here: 8 h treatment) is reported as 112 nM, the AC50 (measured here: 24 h treatment) is reported as 17.1 nM and the AC50 (measured here: 48 h treatment) is reported as 18.6 nM.

`Cc1onc(C(=O)N2CCN(C(c3ccc(Cl)cc3)c3ccc(Cl)cc3)CC2)c1[N+](=O)[O-]` showed an AC50 (measured here: 8 h treatment) of 364 nM, an AC50 (measured here: 24 h treatment) of 80.4 nM and an AC50 (measured here: 48 h treatment) of 97.9 nM.

Molecule `CC(C)(C)OC(=O)NCCOCCOCCOc1ccc(N(C(=O)CCl)C(C(=O)NCCc2ccccc2)c2cccs2)cc1Cl` (stereo not given) has an AC50 (measured here: 8 h treatment) of 265 nM, an AC50 (measured here: 24 h treatment) of 61.1 nM and an AC50 (measured here: 48 h treatment) of 53.1 nM.

— PubChem BioAssay AID720608 (Broad Institute, 2013)
